Experimental data from patent US20240099302A1, “Use of a Biobased Composition Comprising Ferulated Chitosan for Regulating and Stimulating Plant Growth” (FYTEKO SA, priority 2020, published 2024).

Tested on: new guinea impatient plants cultivar Sony pink
Experiment: Effect of foliar spraying on flowering of new guinea impatient plants
Format: in vivo
Conditions: foliar spraying once a week for 8 weeks, evaluated 22 weeks after sowing
Experimental: Different treatments were applied by foliar spraying on one-month old new guinea impatient plants cultivar Sony pink once a week for 8 weeks. The effect of foliage of application on the inflorescence was evaluated at the end of the flowering step (22 weeks after sowing) and the results are shown in Table 12.

Compound | Average diameter of the flowers | Total number of flowers per plant
COc1cc(/C=C/C(=O)O)ccc1O [Ferulic acid] | 6.40 cm | 60.0
Diferulic acid | 6.52 cm | 74.2
